Drawing on US5141957A, “1,4-bis-(amino-hydroxyalkylamino)-anthraquinones for inhibiting protein kinase C” (Sphinx Pharmaceuticals Corporation, priority 1990, dated 1992), this text covers IC50 for two compounds.

pIC50: −log10 of the molar value. Where a name gives a salt, the structure may show the parent alone.

The test system of assay [1] is PMA-stimulated neutrophils. The assay is described as follows: Neutrophil superoxide anion (O2-) release assay. Format: cell-based. The settings on record: Homo sapiens, 0.5 h, 37° C., 30 min, cytochrome c reduction at 550 nm, read-out: IC50, PMA-stimulated O2- production (respiratory burst). As for the experimental part: Neutrophils are isolated form whole blood collected from human volunteers. All reagent materials are obtained from Sigma Chemical Company with the exception of isotonic saline (Travenol Laboratories, Inc., Deerfield, Ill.) and lymphocyte separation medium (Organon Teknika, Durham, N.C.).
Whole blood is drawn and mixed with sodium heparin (final conc. 10 units/ml) to prevent clotting. An equal volume of dextran (3.0%) in isotonic saline is added, mixed, and allowed to settle for 30 min to bind red blood cells (RBC). Supernatant is removed, underlayered with lymphocyte separation medium and centrifuged for 40 min at 400 ×g in a centrifuge (Beckman GPR, Norcross, Ga.). The pellet is alternately resuspended in 0.2% and 1.6% NaCl to lyse RBCs before washing with Hank's Balanced Salt Solution (HBSS). […]
The neutrophil cell concentration is adjusted to 2×10^6 cells/ml with HBSS before adding 0.8 ml cells to 12×75 mm polypropylene test tubes (Fisher Scientific). […] Optical density (OD) of cytochrome c is read in a spectrophotometer (Shimadzu) at 550 nm. […] Reducing cytochrome c increases its absorbance, and the change in OD of cytochrome c is proportional to the amount of O2^- produced by PMA stimulation. […] Inhibition is expressed as IC50 μM and is the amount of test compound that will inhibit fifty per cent of the PMA-stimulated respiratory outburst, i.e. O2^- production.

In assay [2] the test system is MCF-7 human breast tumor cell line. Briefly: Human tumor cell growth inhibition (3H-thymidine incorporation), MCF-7. The assay is classed as cell-based. Conditions: MCF7, inhibition of 3H-thymidine incorporation, 18-24 hrs + 4 hrs. The text has this: (§1) MCF-7 a human breast tumor cell line and MCF-7/ADR an adriamycin resistant line of MCF-7 cells were obtained from the National Cancer Institute, Frederick, Md. CEM cells (ATCC accession number CCL 119) were obtained from the American Type Culture Collection, Rockville, Md. Human tumor cells are trypsinized (0.05% trypsin, GIBCO), counted with a hemacytometer and seeded at a concentration of 10,000 cells/well in a 96 well microtiter plate. After allowing cells to attach to the surface overnight, the culture medium is aspirated and replaced with 100 μl of fresh medium. Test agents are diluted to determine dose response at 2× final concentration and added in quadruplicate at 100 μl/well to bring the total volume of each well to 200 μl . The microtiter plate is then incubated at 37° C. 5% CO2 overnight (18-24 hrs) before ^3 H-thymidine is added at a concentration of 0.5 μCi/well in 50 μl culture medium. The plate is incubated again for 4 hrs under the same conditions as above. Supernatant is then aspirated and 50μl trypsin (0.05%, GIBCO) is added to each well. Cells are checked microscopically to determine detachment from surfaces, and plates are then harvested with a cell harvester (PHD, Cambridge Technology, Inc.) Filter papers corresponding to wells are placed in scintillation vials and counted to determine the amount of ^3 H-thymidine incorporated by the cells. […]
On the technique in general: Uptake of a labelled nucleoside into DNA is a usual measure of proliferation.

Assay [3] relates to MCF-7/ADR adriamycin resistant line of MCF-7 cells. Briefly: Human tumor cell growth inhibition (3H-thymidine incorporation), MCF-7/ADR. Format: cell-based. The settings on record: NCI/ADR-RES, inhibition of 3H-thymidine incorporation, 18-24 hrs + 4 hrs.
From the text: as §1

The subject of the next assay is CEM cells. The assay is described as follows: Human tumor cell growth inhibition (3H-thymidine incorporation), CEM. The assay is classed as cell-based. Conditions: CCRF-CEM, inhibition of 3H-thymidine incorporation, 18-24 hrs + 4 hrs.
From the text: as §1

Assay [4] deals with Proliferating keratinocytes (NHEK cells). The assay is described as follows: Human keratinocyte inhibition (3H-thymidine incorporation). The assay is classed as cell-based. The settings on record: second passage, inhibition of 3H-thymidine incorporation. As for the experimental part: as §1, with “Human” for “MCF-7 a human breast tumor cell line and MCF-7/ADR an adriamycin resistant line of MCF-7 cells were obtained from the National Cancer Institute, Frederick, Md. CEM cells (ATCC accession number CCL 119) were obtained from the American Type Culture Collection, Rockville, Md. Human”, “Supernatant is then aspirated and 50μl trypsin (0.05%, GIBCO) is added to each well.” left out
Proliferating keratinocytes (NHEK cells purchased from Clonetics, Inc., San Diego, Calif.) in second passage were grown in Keratinocyte Growth Medium (KGM) (Clonetics, Inc.) Cells are trypsinized (0.025% trypsin, Clonetics), counted with a hemacytometer (Scientific Products), and seeded at a concentration of 2,500 cells/well in a 96 well microtiter plate. […]

The next assay concerns the target Protein kinase C (PKC). The assay is described as follows: Protein kinase C inhibition (histone H1 phosphorylation, 32P-ATP). Format: biochemical. Conditions: histone H1 substrate; enzyme from rat brain; 20 μM ATP; pH 7.5; 10 min. The procedure:
The protein kinase C (PKC) assay is designed to duplicated the in vivo conditions required for protein kinase C function. Therefore, pH, salt and cofactor concentrations are similar to physiologic levels. Histone Hl (lysine rich) is used in the assay as the phosphorylation acceptor protein because it is readily available and serves as a good substrate for protein kinase C. The enzyme is prepared from rat brain and is purified to apparent homogeneity as determined by a single band on silver stained SDS-polyacrylamide. Studies on the mechanism of regulation of protein kinase C by phospholipids, DAG and Ca^+2 have been hampered by the physical properties of the lipid cofactors. In the screening assay, phosphatidylserine (PS) and DAG are co-sonicated to form unilamellar and multilamellar vesicles. The concentration of lipids in the assay are suboptimal to maximize the detection potential of the assay for inhibitors. Potential inhibitor compounds are added to the assay in dimethylsulfoxide at three concentrations to give final inhibitor concentrations of 4.3, 43 and 218 μM, respectively. The assay is started with the addition of enzyme and stopped after 10 min by the addition of 25 % trichloroacetic acid (TCA) and 1.0 mg/ml bovine serum albumin (BSA). […] The amount of phosphorylation is determined by the radioactivity measured in a scintillation counter. […]

The pIC50 is the negative decadic logarithm of the IC50, by convention in mol/L. `O=C1c2ccccc2C(=O)c2c(NCC(O)CNCc3ccccc3)ccc(NCC(O)CNCc3ccccc3)c21` (stereo not shown) [Compound 1b, 1,4-Bis-(3-Benzylamino-2-Hydroxypropylamino)-9, 10 anthracenedione. Hydrochloride salt]: the negative logarithm of the IC50 (pIC50) in assay [1] was 5.41; in assay [2] it was 5.57; in assay [3], 4.77; in the assay on CEM cells, 5.57; in assay [4], 5.40; against Protein kinase C (PKC) it was 4.37.
For the compound `CCCNCC(O)CNc1ccc(NCC(O)CNCCC)c2c1C(=O)c1ccccc1C2=O` (stereo not shown) [Compound 1a, 1,4-Bis-(3-Propylamino-2-Hydroxypropylamino)-9, 10 anthracenedione hydrochloride], the pIC50 in assay [2] was 5.62; in assay [3], less than 4.60; in the assay on CEM cells, 5.25; against Protein kinase C (PKC), 3.70.
